Experiments:
TgMyoA (myosinA) [1] = target: T1, TgMyoA (myosinA) (Toxoplasma gondii, UniProt O00934); experiment: actin-activated ATPase (ADP-Glo) at […] compound; partial inhibition; type: biochemical
T1 construct: recombinant TgMyoA heavy chain co-expressed with TgMLC1 and TgELC1 in Sf9 cells; with TgMLC1, TgELC1

TgMyoA (myosinA) [2] = target: T1, TgMyoA (myosinA); experiment: actin-activated ATPase (ADP-Glo) at […] compound; type: biochemical

Row | Compound | actin-activated ATPase (ADP-Glo) at 20 μM compound; partial inhibition (TgMyoA (myosinA) [1]) | actin-activated ATPase (ADP-Glo) at 20 μM compound (TgMyoA (myosinA) [2])
1 | Clc1ccc(C2(NCc3c[nH]nc3-c3cccs3)CC2)cc1Cl [VEST4] | partially retained in analogs containing p-Me (VEST3) or m,p-dichloro (VEST4) substituents | –
2 | Cc1ccc(C2(NCc3c[nH]nc3-c3cccs3)CC2)cc1 [VEST3] | partially retained in analogs containing p-Me (VEST3) or m,p-dichloro (VEST4) substituents | –
3 | Clc1ccc(C2(NCc3c[nH]nc3-c3cccs3)CC2)cc1 [VEST2] | – | inhibition of both in vitro ATPase activity and parasite growth were retained when the p-OMe substituent in KNX-002 was replaced
